# Activity calls are given as the source filed them.
# Columns and labels:
# [1] = target: T1, Apoptotic protease-activating factor 1 (Homo sapiens, UniProt O14727); assay: SAR analysis of small molecule Activators of Apaf-1 in a Fluorescent assay.; type: functional; details: read-out: EC50_Mean;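 further: caspase-3 cleavage of fluorogenic Rh110 DEVD substrate downstream of apoptosome activation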
# T1 sequence (O14727 whole entry): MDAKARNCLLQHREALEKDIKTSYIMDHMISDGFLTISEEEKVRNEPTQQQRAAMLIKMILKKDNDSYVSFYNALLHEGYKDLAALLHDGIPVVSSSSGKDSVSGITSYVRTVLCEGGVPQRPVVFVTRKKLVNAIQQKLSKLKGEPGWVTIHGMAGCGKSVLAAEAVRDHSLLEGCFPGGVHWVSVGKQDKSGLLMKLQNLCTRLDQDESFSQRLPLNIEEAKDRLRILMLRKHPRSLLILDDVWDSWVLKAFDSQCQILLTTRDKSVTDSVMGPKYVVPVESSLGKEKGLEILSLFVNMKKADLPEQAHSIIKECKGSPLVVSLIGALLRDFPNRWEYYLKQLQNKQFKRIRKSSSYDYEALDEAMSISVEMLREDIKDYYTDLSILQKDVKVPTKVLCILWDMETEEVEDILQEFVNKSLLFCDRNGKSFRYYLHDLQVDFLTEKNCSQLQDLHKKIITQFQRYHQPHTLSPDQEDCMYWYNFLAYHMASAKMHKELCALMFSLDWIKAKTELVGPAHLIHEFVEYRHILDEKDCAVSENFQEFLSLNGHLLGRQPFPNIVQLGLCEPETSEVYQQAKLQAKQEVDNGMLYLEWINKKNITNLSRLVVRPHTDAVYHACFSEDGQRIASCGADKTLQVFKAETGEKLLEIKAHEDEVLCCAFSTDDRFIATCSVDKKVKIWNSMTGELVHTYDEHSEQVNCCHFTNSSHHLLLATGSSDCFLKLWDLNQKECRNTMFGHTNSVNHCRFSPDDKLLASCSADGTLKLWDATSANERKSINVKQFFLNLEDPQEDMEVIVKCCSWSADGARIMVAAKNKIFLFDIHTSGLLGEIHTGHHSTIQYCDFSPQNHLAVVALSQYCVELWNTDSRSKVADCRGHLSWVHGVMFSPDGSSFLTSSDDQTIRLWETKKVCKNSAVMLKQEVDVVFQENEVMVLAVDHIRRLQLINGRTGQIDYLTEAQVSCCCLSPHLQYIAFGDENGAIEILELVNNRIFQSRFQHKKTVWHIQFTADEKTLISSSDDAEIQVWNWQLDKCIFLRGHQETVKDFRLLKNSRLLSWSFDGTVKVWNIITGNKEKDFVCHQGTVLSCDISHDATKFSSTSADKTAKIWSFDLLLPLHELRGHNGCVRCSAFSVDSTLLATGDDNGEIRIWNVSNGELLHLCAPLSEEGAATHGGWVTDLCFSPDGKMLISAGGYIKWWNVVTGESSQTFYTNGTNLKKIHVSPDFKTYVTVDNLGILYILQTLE
# [2] = target: T2, Corticotropin-releasing factor receptor 2/Corticotropin-releasing factor-binding protein (Homo sapiens, UniProt P24387+Q13324); assay: Dose Response confirmation of uHTS hits for small molecule antagonists of the CRF-binding protein and CRF-R2 receptor complex.; type: functional; details: read-out: IC50_Mean
# T2 sequence (Q13324 whole entry): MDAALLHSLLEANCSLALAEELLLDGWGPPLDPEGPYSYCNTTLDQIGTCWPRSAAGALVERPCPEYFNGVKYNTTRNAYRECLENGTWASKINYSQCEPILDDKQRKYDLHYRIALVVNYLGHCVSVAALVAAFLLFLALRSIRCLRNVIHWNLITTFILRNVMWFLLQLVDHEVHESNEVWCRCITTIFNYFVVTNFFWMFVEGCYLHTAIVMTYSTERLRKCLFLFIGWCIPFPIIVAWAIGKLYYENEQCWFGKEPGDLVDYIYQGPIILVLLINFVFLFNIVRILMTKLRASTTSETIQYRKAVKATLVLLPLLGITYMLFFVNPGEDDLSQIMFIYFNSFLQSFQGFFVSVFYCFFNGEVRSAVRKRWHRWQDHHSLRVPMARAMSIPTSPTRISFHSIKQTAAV
# T2 sequence (P24387 whole entry): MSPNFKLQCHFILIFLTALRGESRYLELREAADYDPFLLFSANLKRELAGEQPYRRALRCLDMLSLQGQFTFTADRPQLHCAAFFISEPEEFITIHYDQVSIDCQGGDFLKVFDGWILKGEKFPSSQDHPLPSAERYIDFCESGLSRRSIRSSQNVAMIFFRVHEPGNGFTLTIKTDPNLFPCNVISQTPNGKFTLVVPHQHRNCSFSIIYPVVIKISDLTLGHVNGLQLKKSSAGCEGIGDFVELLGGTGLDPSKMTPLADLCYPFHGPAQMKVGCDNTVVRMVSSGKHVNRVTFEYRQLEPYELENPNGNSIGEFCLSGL
# [3] = target: T2, Corticotropin-releasing factor receptor 2/Corticotropin-releasing factor-binding protein; assay: activators of CRF receptor 2 with binding protein – uHTS hits, confirmation (AID 602473); type: functional; details: read-out: EC50_Mean
# [4] = target: Mu-type opioid receptor (Homo sapiens, UniProt P35372); type: functional, cell-based;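 further: U2OS cells with beta-arrestin recruitment to OPRM1 by beta-gal complementation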
# [5] = target: 5-hydroxytryptamine receptor 2A (Mus musculus, UniProt P35363); type: functional, cell-based;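 further: CHO-K1 cells with tagged receptor and beta-arrestin; agonist potency measured as compound-induced activation of the receptor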
# [6] = tested on: A-375; assay: MITF: Counter assay: A375 proliferation Measured in Cell-Based System Using Plate Reader - 2084-03_Inhibitor_Dose_DryPowder_Activity. [Related pubchem assays (depositor defined):AID488944]; type: functional; details: Homo sapiens
# [7] = tested on: A-375; assay: proliferation inhibition in MITF-low A375 cells – cell-based, cherry-pick samples, set 2, counter-screen for MITF modulator project, dose response (AID 540335); type: functional; details: Homo sapiens
# [8] = target: SWI/SNF-related matrix-associated actin-dependent regulator of chromatin subfamily A member 2 (Homo sapiens, UniProt P51531); assay: Luminescence-based cell-based high throughput dose response assay to identify activators of the function of SWI/SNF related, matrix associated, actin dependent regulator of chromatin, subfamily a, member 2 (SMARCA2, BRM).; type: functional
# [9] = Counterscreen for activators of the function of SWI/SNF related, matrix associated, actin dependent regulator of chromatin, subfamily a, member 2 (SMARCA2, BRM): Luminescence-based cell-based high throughput dose response assay to identify non-selective compounds using the VP16 reporter assay.; type: functional
# [10] = target: T3, Sentrin-specific protease 8 (Homo sapiens, UniProt Q96LD8); type: functional
# T3 sequence (Q96LD8 whole entry): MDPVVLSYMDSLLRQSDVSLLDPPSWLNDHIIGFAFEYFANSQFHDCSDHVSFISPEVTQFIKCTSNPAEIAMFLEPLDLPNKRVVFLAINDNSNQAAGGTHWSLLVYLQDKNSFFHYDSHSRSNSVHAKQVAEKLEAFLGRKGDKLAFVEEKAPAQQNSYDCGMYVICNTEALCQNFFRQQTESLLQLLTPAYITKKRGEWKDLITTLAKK
# [11] = target: T3, Sentrin-specific protease 8; type: functional; remark: listed apart in the source
# [12] = target: T4, Carboxy-terminal domain RNA polymerase II polypeptide A small phosphatase 1 (Homo sapiens, UniProt Q9GZU7); assay: CTDSP1 inhibitors, concentration-response, biochemical, absorbance readout, ultra-high-throughput screen actives (AID 540297); type: functional
# T4 sequence (Q9GZU7 whole entry): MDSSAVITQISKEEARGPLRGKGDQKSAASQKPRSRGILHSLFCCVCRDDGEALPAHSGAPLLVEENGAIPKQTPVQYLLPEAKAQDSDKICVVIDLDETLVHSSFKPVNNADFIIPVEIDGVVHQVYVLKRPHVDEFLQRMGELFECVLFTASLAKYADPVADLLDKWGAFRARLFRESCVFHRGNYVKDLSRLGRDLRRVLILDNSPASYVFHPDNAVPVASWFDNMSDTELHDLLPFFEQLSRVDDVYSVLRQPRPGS
# [13] = target: Tyrosine-protein phosphatase non-receptor type 11 (Homo sapiens, UniProt Q06124); assay: PTPN11 enzyme inhibitors – biochemical, selectivity assay for STEP inhibitor project, dose response (AID 602367); type: functional; details: read-out: IC50_Mean
# [14] = target: 26S proteasome non-ATPase regulatory subunit 14 (Homo sapiens, UniProt O00487); assay: inhibition of proteasome subunit RPN11 – biochemical, fluorescence polarization, uHTS hits, confirmation (AID 602368); type: functional
# [15] = target: Tyrosine-protein phosphatase non-receptor type 5 (Homo sapiens, UniProt P54829); assay: PTPN5 enzyme inhibition – biochemical, fluorescence intensity, uHTS hits, confirmation (AID 602372); type: functional; details: read-out: IC50_Mean
# [16] = target: 72 kDa type IV collagenase (Homo sapiens, UniProt P08253); assay: Dose Response validation of uHTS RPN11 inhibitor hits using a MMP-2 Fluorescence assay.; type: functional
# [17] = target: Dual specificity protein phosphatase 3 (Homo sapiens, UniProt P51452); assay: VHR phosphatase inhibition, dose response, selectivity assay for STEP inhibitor project, biochemical (AID 602374); type: functional; details: read-out: IC50_Mean
# [18] = target: Prothrombin (Bos taurus, UniProt P00735); assay: thrombin protease inhibitors – biochemical, fluorescence polarization, uHTS hits, dose response (AID 602369); type: functional
# [19] = target: T5, Tyrosine-protein phosphatase non-receptor type 22 (Homo sapiens, UniProt Q9Y2R2); assay: lymphoid phosphatase LYP inhibitors – biochemical, selectivity assay for STEP inhibitor project, dose response (AID 624241); type: functional
# T5 sequence (Q9Y2R2 whole entry): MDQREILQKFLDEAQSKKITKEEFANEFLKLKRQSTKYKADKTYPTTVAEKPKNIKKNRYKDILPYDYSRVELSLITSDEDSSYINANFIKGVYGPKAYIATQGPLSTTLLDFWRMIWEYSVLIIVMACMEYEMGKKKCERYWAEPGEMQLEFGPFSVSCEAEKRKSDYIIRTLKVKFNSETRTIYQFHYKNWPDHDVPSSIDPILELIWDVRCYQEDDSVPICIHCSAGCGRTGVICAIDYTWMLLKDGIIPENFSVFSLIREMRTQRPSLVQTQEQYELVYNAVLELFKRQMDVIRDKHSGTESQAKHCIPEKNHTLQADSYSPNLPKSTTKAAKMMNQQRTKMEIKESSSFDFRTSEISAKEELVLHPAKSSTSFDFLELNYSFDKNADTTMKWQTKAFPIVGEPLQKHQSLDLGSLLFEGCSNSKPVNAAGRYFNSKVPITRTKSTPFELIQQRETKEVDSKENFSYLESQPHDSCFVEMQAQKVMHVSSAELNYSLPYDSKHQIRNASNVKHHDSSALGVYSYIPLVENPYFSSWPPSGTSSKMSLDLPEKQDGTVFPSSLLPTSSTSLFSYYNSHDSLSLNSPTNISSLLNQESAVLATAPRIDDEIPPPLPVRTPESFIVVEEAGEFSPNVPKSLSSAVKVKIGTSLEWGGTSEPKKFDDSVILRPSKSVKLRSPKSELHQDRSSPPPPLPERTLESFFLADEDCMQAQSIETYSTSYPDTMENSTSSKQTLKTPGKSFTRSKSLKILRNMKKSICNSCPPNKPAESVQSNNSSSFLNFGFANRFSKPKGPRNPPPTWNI
# [20] = blockers of HIV-1 envelope-mediated cell-cell fusion – cherry-pick, dose response (AID 652057); type: functional, cell-based
# [21] = viability loss in CEM21 cells – cell-based, CellTiter-Glo luminescence, cherry-picked, cytotoxicity control for viral fusion inhibitor project, dose response (AID 652042); type: functional;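 further: potency for signal decrease meaning cytotoxicity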
# [22] = blockers of HIV-1 ZM109 envelope-driven cell-cell fusion – HeLa effector, CEM target cells, luciferase, cherry-pick, dose response (AID 652058); type: functional, cell-based;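 further: luciferase signal from HIV-1 Env mediated cell-cell fusion of effector and target cells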
# [23] = off-target signal loss in HeLa-CEM21 co-culture – HeLa F-luc CTL cells, cherry-picked, counter-screen for HIV-1 Env fusion inhibitor project, dose response (AID 652040); type: functional, cell-based;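 further: potency for signal decrease marking cytotoxic or nonspecific inhibition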
# [24] = HIV-1 AD8 envelope cell-cell fusion blockers – cherry-pick, dose response (AID 652062); type: functional, cell-based;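 further: luciferase signal from cell-cell fusion driven by HIV-1 clade B AD8 Env; potency is for inhibitors of fusion seen as a drop in luminescence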
# SWI/SNF-related matrix-associated actin-dependent regulator of chromatin subfamily A member 2, sequence (P51531 whole entry): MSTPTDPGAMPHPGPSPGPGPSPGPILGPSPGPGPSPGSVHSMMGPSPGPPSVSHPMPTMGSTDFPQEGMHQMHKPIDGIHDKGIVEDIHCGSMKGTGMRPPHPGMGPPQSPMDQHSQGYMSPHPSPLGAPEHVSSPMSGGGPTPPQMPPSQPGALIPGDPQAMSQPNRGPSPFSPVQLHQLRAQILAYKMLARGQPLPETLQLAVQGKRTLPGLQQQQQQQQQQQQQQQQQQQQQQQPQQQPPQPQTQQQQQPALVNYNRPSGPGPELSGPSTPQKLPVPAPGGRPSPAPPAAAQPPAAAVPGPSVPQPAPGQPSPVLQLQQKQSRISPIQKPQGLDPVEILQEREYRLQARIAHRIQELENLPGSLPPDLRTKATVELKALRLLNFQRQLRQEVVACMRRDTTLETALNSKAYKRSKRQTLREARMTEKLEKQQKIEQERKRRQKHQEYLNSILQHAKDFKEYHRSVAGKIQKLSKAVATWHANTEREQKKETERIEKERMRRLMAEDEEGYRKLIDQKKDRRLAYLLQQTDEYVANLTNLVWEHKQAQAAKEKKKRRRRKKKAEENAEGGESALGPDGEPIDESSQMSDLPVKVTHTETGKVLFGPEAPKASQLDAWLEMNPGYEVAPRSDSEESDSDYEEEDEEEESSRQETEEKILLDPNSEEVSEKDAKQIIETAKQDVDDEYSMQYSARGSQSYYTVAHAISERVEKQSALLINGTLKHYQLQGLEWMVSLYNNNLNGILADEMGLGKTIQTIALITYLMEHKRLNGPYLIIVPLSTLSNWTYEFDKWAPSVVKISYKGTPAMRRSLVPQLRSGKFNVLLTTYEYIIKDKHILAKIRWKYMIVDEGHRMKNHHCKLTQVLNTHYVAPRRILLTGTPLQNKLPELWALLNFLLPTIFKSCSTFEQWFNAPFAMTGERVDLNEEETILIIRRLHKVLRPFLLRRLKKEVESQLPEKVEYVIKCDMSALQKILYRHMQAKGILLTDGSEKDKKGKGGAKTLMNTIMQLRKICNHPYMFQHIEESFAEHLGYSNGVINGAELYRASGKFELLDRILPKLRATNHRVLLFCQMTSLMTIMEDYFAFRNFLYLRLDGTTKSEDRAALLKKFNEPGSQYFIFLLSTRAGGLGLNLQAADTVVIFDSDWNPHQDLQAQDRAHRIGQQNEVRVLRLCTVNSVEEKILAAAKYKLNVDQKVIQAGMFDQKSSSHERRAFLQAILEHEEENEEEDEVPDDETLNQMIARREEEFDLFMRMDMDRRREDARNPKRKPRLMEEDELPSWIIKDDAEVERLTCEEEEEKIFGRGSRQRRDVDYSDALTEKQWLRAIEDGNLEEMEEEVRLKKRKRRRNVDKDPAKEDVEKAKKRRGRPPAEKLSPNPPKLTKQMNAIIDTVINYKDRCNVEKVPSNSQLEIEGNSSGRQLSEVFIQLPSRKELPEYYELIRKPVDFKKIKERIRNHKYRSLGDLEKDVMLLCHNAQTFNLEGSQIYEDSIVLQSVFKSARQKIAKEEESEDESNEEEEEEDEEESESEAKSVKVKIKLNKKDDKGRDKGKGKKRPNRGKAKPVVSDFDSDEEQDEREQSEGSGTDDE
# Mu-type opioid receptor, sequence (P35372 whole entry): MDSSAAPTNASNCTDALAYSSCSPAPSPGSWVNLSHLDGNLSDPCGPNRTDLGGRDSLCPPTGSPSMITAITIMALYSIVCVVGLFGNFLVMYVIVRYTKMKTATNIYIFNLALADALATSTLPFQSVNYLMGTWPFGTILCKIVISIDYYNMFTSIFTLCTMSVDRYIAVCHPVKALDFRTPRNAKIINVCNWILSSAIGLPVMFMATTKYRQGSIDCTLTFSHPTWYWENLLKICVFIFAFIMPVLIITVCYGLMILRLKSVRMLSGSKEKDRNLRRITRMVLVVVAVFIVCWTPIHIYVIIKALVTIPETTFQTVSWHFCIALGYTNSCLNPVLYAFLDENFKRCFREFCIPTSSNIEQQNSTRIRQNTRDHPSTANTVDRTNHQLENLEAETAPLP
# 5-hydroxytryptamine receptor 2A, sequence (P35363 whole entry): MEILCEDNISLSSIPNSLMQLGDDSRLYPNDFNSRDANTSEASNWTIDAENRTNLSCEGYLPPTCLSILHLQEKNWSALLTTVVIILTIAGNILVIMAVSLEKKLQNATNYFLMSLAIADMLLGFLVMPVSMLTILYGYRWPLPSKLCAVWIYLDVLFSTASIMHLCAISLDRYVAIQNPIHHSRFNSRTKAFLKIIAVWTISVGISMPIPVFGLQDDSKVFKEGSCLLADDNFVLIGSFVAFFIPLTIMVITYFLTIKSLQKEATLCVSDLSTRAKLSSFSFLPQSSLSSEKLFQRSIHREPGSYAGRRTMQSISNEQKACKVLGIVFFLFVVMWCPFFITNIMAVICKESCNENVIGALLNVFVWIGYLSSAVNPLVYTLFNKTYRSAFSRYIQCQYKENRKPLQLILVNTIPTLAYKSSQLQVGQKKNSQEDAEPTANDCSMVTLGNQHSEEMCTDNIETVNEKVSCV
# Tyrosine-protein phosphatase non-receptor type 11, sequence (Q06124 whole entry): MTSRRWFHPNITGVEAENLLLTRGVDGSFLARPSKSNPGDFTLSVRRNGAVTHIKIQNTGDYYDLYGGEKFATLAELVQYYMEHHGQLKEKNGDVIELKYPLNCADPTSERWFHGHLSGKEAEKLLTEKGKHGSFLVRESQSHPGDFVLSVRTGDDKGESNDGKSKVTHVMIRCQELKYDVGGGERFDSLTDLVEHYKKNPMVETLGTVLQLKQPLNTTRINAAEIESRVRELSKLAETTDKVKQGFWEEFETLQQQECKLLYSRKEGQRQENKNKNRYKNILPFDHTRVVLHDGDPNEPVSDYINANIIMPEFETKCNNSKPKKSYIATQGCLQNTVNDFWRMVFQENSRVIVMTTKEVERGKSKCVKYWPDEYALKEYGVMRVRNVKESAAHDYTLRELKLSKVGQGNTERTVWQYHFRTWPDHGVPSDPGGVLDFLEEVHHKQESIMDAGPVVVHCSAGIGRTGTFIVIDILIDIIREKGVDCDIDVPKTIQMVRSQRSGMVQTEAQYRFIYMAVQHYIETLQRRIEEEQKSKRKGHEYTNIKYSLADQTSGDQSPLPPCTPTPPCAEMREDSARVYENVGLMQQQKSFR
# Dual specificity protein phosphatase 3, sequence (P51452 whole entry): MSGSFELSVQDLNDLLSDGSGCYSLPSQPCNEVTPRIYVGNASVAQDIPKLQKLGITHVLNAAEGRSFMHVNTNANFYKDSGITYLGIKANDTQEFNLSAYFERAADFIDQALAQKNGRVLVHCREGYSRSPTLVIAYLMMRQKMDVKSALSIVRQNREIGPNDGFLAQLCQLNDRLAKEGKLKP
# 72 kDa type IV collagenase, sequence (P08253 whole entry): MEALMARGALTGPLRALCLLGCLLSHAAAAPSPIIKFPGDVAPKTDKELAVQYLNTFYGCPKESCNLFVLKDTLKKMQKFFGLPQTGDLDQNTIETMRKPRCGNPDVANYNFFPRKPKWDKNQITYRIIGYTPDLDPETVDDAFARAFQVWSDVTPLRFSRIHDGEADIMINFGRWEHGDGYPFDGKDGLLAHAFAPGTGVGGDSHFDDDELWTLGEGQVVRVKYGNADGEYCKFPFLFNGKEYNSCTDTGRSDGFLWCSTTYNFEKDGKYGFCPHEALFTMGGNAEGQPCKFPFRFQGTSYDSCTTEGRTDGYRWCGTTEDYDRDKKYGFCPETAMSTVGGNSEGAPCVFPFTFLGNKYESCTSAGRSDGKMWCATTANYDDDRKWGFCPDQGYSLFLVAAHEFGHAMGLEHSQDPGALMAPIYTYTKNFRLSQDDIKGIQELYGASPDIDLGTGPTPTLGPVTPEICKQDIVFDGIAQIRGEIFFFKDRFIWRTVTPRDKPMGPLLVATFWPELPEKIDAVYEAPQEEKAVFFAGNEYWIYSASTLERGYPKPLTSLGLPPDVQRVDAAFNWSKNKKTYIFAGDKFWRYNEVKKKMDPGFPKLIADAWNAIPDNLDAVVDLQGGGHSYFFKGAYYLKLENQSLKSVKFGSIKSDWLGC
# Tyrosine-protein phosphatase non-receptor type 5, sequence (P54829 whole entry): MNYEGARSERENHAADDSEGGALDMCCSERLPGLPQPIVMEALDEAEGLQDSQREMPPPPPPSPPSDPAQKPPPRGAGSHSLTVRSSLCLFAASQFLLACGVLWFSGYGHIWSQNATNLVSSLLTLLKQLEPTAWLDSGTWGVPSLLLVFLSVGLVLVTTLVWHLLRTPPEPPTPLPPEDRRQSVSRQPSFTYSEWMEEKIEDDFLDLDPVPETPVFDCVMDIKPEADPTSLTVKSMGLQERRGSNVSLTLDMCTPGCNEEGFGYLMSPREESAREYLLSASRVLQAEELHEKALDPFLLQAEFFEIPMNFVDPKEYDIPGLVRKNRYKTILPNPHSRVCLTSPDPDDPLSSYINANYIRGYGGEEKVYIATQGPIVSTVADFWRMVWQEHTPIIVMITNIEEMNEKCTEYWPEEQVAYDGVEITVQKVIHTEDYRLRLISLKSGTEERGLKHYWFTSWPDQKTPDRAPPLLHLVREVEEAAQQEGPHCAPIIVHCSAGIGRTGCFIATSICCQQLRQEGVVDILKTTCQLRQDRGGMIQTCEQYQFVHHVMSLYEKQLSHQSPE
# 26S proteasome non-ATPase regulatory subunit 14, sequence (O00487 whole entry): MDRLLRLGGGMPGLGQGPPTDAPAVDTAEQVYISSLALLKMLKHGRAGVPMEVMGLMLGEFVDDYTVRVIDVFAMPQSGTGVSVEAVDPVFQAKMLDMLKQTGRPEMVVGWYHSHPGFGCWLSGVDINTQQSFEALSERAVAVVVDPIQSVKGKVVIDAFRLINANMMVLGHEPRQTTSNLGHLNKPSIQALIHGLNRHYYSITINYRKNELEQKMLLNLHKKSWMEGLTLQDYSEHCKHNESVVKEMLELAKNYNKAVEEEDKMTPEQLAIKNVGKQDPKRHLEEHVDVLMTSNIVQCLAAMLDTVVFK
smiles,measurement,setting,value
Cc1nc(C(F)(F)F)ccc1C(=O)Nc1nc2ccsc2c(=O)s1,EC50,[1],> 100 µM (inactive)
CC(=O)N1CCC(N2CCCC(C(=O)c3cccc(Cl)c3)C2)CC1 (stereo unspecified),IC50,[2],> 47.1 µM (inactive)
same,EC50,[3],> 53 µM (inactive)
same,EC50,[4],92.5 µM (inactive)
same,EC50,[5],0.764 µM (active)
O=C(Nc1nc2ccsc2c(=O)s1)C1CCC1,AC50,[6],> 35 µM (active)
same,AC50,[7],> 35 µM (active)
same,EC50,[1],> 100 µM (inactive)
COc1ccc(OCc2ccc(/C=N\NC(=O)c3sccc3C)o2)cc1,EC50,[8],> 91.2 µM (inactive)
same,EC50,[9],> 91.2 µM (inactive)
CCC(=O)c1ccc(OCc2cn(CC(=O)c3ccc(O)cc3)nn2)cc1,IC50,[10],7.63 µM (active)
same,IC50,[11],12.5 µM (active)
COc1ccc2c(c1)C(=O)N(c1ccccc1OC)C(=O)C2,IC50,[10],> 100 µM (inactive)
same,IC50,[11],15.4 µM (active)
O=C(N/N=C/c1cccnc1)c1ccc(NC(=O)c2cccc(Cl)c2)cc1,IC50,[12],7.91 µM (active)
same,IC50,[13],5.05 µM (active)
same,IC50,[14],22.7 µM (active)
same,IC50,[15],16.5 µM (active)
same,IC50,[16],> 100 µM (inactive)
same,IC50,[17],2.84 µM (active)
same,IC50,[18],> 100 µM (inactive)
same,IC50,[19],30.2 µM (inactive)
Cc1cccc(CSc2ccc(-c3cccs3)nn2)c1,EC50,[8],> 91.1 µM (inactive)
same,EC50,[9],> 91.1 µM (inactive)
O=C(CNCc1cccs1)Nc1cc(S(=O)(=O)N2CCCC2)ccc1Cl,EC50,[4],92.5 µM (inactive)
same,EC50,[5],18.4 µM (inactive)
CCOc1cccc(-c2nnc3sc(C4CCCCC4)nn23)c1,AC50,[20],5.97 µM (active)
same,AC50,[21],49.9 µM (active)
same,AC50,[22],21.4 µM (active)
same,AC50,[23],46 µM (active)
same,AC50,[24],7.17 µM (active)

# Source: ChEMBL document CHEMBL1201862, “PubChem BioAssay data set” (2004)
